Assay results reported in patent US9255094B2, “Pyrido[4,3-B]indoles and methods of use” (Medivation Technologies, Inc., priority 2009, dated 2016).

Assays:
[1] = molecular target: human recombinant dopamine D2L receptor (Homo sapiens, UniProt P14416); assay: Dopamine D2L radioligand binding assay ([3H]Spiperone); settings: compound at 1 μM, 0.16 nM [3H]Spiperone, CHO cells, read-out: Percent Inhibition of ligand binding, Dopamine (1μM)
Description: (§1) Compounds of the invention were incubated with 0.16 nM [^3H]Spiperone for 120 min at 25° C. Non-specific binding was estimated in the presence of 10 μM Haloperidol. Receptor proteins were filtered and washed, the filters were then counted to determine [^3H]Spiperone specifically bound. Compounds were screened at 1 μM or lower, using 1% DMSO as vehicle. Biochemical assay results are presented as the percent inhibition of specific binding in Table 3.

[2] = molecular target: T1, human recombinant serotonin (5-Hydroxytryptamine) 5-HT2A receptor (Homo sapiens, UniProt P28223); assay: Serotonin 5-HT2A radioligand binding assay ([3H]Ketanserin); settings: 0.5 nM [3H]Ketanserin, CHO-K1 cells; for inhibition at 0.1 µM: compound at 0.1 μM, read-out: Percent Inhibition of ligand binding, Serotonin (0.1 μM) 5-HT2A; for inhibition at 1 µM: read-out: Percent Inhibition of ligand binding, Serotonin (1 μM) 5-HT2A
T1 construct: expressed in transfected cells; host or cells: Chinese hamster ovary (CHO-K1) cells
T1 sequence (P28223 whole entry): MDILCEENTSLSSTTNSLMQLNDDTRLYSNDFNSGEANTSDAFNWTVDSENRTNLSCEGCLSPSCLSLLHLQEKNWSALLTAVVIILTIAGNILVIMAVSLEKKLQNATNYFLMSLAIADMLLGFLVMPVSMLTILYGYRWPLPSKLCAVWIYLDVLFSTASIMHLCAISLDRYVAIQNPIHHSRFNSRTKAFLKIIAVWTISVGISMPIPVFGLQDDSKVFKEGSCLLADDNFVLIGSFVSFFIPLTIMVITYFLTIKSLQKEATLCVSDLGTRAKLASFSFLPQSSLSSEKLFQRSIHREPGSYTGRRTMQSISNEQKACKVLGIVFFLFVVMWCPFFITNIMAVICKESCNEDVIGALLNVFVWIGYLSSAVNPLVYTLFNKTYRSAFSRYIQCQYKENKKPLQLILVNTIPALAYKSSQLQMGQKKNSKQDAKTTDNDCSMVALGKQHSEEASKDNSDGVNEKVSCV
Description: as §1, with “0.5” for “0.16”, “[^3H]Ketanserin” for “[^3H]Spiperone”, “60” for “120”, “1” for “10”, “Mianserin.” for “Haloperidol.”, “4.” for “3.”

[3] = molecular target: human recombinant histamine H1 receptor (Homo sapiens, UniProt P35367); assay: Histamine H1 radioligand binding assay ([3H]Pyrilamine); settings: compound at 1 μM, receptor expressed in CHO cells
Sequence of human recombinant histamine H1 receptor (P35367 whole entry): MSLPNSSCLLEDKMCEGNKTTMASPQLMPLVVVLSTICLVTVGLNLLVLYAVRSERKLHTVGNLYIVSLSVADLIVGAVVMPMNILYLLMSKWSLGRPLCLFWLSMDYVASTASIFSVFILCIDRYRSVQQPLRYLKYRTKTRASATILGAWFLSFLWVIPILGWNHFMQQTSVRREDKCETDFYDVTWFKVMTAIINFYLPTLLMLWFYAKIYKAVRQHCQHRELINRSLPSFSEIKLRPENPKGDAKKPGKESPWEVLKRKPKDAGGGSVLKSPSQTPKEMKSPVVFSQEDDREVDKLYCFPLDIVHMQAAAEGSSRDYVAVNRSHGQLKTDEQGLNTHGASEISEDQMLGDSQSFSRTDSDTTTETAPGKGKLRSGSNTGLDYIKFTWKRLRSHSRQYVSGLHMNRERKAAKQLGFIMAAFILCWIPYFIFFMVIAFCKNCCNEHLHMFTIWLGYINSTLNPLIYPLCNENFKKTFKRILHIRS
Description: To evaluate in radioligand binding assays the activity of compounds of the invention, human recombinant histamine H1 receptor expressed in Chinese hamster ovary (CHO) cells (De Backer, M. D. et al., Biochem. Biophys. Res. Comm. 197(3):1601, 1993) in a modified Tris-HCl buffer (50 mM Tris-HCl, pH 7.4, 2 mM MgCl2, 100 mM NaCl, 250 mM Sucrose) was used. Compounds of the invention were incubated with 1.2 nM [^3H]Pyrilamine for 180 min at 25° C. Non-specific binding was estimated in the presence of 1 μM pyrilamine Receptor proteins were filtered and washed, the filters were then counted to determine [^3H]Pyrilamine specifically bound. Compounds were screened at 1 μM or lower, using 1% DMSO as vehicle. Biochemical assay results are presented as the percent inhibition of specific binding in Table 2.

[4] = molecular target: T2, human recombinant adrenergic α2A receptor (Homo sapiens, UniProt P08913); assay: Adrenergic α2A radioligand binding assay ([3H]MK-912); settings: compound at 1 μM, 1 nM [3H]MK-912, insect Sf9 cells
T2 construct: expressed in transfected cells; host or cells: insect Sf9 cells
T2 sequence (P08913 1-465): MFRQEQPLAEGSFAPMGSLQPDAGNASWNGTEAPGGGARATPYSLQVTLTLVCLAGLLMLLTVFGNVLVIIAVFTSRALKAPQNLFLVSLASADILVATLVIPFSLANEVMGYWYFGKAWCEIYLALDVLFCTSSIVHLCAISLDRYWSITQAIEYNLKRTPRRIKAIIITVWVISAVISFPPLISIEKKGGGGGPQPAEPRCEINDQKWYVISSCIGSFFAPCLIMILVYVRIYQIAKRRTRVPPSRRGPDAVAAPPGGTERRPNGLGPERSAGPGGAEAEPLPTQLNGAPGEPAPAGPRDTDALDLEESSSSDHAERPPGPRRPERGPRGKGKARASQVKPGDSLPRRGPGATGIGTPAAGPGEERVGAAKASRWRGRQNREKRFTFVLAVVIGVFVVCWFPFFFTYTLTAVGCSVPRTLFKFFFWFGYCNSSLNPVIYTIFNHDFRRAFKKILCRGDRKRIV
Description: To evaluate in radioligand binding assays the activity of compounds of the invention, human recombinant adrenergic α2A receptor expressed in insect Sf9 cells (Uhlen S et al. J. Pharmacol. Exp. Ther. 271:1558, 1994) in a modified Tris-HCl buffer (50 mM Tris-HCl, pH 7.4, 12.5 mM MgCl2, 2 mM EDTA) was used. Compounds of invention were incubated with 1 nM [^3H]MK-912 for 60 min at 25° C. MK912 is (2S-trans)-1,3,4,5′,6,6′,7,12b-octahydro-1′,3′-dimethyl-spiro[2H-benzofuro[2,3-a]quinolizine-2,4′(1′H)-pyrimidin]-2′(3′H)-one hydrochloride Non-specific binding was estimated in the presence of 10 μM WB-4101 (2-(2,6-dimethoxyphenoxyethyl)aminomethyl-1,4-benzodioxane hydrochloride). Receptor proteins were filtered and washed, the filters were then counted to determine [^3H]MK-912 specifically bound.

[5] = molecular target: T3, human recombinant serotonin (5-Hydroxytryptamine) 5-HT2C receptor (Homo sapiens, UniProt P28335); assay: Serotonin 5-HT2C radioligand binding assay ([3H]Mesulergine); settings: compound at 0.1 μM; 1 nM [3H]Mesulergine; CHO-K1 cells; read-out: Percent Inhibition of ligand binding, Serotonin (0.1 μM) 5-HT2C
T3 construct: expressed in transfected cells; host or cells: Chinese hamster ovary (CHO-K1) cells
T3 sequence (P28335 33-458): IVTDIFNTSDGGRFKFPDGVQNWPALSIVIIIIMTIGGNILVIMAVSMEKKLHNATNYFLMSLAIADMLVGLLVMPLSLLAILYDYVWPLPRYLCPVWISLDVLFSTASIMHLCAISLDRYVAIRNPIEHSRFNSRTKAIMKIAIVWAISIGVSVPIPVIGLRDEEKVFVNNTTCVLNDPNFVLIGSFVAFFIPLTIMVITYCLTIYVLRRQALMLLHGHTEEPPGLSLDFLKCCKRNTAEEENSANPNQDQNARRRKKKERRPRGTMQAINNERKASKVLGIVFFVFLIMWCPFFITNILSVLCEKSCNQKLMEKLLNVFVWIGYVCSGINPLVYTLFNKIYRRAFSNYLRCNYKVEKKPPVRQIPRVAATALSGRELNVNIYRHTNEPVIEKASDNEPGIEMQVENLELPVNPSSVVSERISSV
Description: as §1, with “1” for “0.16”, “[^3H]Mesulergine” for “[^3H]Spiperone”, “60” for “120”, “1” for “10”, “Mianserin.” for “Haloperidol.”, “4.” for “3.”

[6] = molecular target: T4, human recombinant serotonin (5-Hydroxytryptamine) 5-HT6 receptor (Homo sapiens, UniProt P50406); assay: Serotonin 5-HT6 radioligand binding assay ([3H]LSD); settings: compound at 0.1 μM, HeLa cells, read-out: Percent Inhibition of ligand binding, Serotonin (0.1 μM) 5-HT6
T4 construct: expressed in transfected cells; host or cells: human HeLa cells
T4 sequence (P50406 whole entry): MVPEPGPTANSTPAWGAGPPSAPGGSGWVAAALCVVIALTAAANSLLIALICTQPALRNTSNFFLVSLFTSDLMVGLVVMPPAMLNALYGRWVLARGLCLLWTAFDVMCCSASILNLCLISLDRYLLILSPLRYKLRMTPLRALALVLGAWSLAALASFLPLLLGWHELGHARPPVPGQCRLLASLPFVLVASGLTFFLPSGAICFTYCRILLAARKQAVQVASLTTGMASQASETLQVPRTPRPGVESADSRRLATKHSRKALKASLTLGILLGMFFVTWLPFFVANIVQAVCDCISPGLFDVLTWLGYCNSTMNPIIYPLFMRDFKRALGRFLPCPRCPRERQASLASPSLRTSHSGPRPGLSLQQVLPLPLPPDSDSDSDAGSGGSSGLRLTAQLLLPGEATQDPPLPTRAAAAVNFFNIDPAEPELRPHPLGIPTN
Description: (§2) Compounds of the invention were incubated with 1.5 nM [3H]Lysergic acid diethylamide (LSD) for 120 min at 37° C. […] Receptor proteins were filtered and washed, the filters were then counted to determine [3H]LSD specifically bound. Compounds were screened at 1 μM or lower, using 1% DMSO as vehicle. Biochemical assay results are presented as the percent inhibition of specific binding in Table 4.

[7] = molecular target: human recombinant serotonin (5-Hydroxytryptamine) 5-HT7 receptor (Homo sapiens, UniProt P34969); assay: Serotonin 5-HT7 radioligand binding assay ([3H]LSD); settings: compound at 0.1 μM; 5.5 nM [3H]LSD; CHO cells; read-out: Percent Inhibition of ligand binding, Serotonin (0.1 μM) 5-HT7
Sequence of human recombinant serotonin (5-Hydroxytryptamine) 5-HT7 receptor (P34969 whole entry): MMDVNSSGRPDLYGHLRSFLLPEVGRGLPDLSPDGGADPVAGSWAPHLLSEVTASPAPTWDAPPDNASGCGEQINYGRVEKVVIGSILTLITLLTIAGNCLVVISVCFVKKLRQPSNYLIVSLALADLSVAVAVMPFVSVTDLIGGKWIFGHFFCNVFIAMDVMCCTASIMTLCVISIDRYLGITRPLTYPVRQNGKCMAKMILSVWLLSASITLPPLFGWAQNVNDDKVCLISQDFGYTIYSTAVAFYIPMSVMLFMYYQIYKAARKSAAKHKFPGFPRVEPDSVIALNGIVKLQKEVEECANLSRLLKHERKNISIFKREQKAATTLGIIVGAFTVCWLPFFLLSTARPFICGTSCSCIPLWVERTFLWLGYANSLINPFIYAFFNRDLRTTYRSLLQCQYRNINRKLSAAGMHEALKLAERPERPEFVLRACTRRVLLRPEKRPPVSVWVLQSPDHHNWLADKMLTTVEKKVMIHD
Description: as §2, with “of” for “of the”, “5.5” for “1.5”, “[^3H] Lysergic” for “[3H]Lysergic”, “2 h” for “120 min”, “25°” for “37°”, “[^3H]LSD” for “[3H]LSD”

Sequence of human recombinant dopamine D2L receptor (P14416 whole entry): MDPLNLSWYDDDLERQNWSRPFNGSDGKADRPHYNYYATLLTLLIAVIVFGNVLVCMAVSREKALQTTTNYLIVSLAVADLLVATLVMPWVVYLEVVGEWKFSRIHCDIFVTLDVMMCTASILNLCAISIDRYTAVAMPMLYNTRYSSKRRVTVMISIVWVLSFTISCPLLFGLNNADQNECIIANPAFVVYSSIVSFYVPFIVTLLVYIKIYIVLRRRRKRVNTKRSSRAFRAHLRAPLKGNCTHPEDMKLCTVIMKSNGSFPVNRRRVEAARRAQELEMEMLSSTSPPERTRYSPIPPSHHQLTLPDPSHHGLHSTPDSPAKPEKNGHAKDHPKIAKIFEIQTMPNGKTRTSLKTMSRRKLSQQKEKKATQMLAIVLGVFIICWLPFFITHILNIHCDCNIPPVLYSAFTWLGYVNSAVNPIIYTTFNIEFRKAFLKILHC

Cc1ccc2c(c1)c1c(n2CC(O)(c2ccc(F)cc2)C2CCCCC2)CCN(C)C1 (stereo not shown) [Compound 1-1, 1-cyclohexyl-2-(2,8-dimethyl-3,4-dihydro-1H-pyrido[4,3-b]indol-5(2H)-yl)-1-(4-fluorophenyl)ethanol]
inhibition at 1 µM [1]: 13% | inhibition at 0.1 µM [2]: 60% | inhibition at 1 µM ([2]; compound at 1 μM): 97% | inhibition at 1 µM [3]: 22%

CCCCC(O)(Cn1c2c(c3cc(Cl)ccc31)CN(C)CC2)c1ccc(F)cc1 (stereo not shown) [Compound 1-7, 1-(8-chloro-2-methyl-3,4-dihydro-1H-pyrido[4,3-b]indol-5(2H)-yl)-2-(4-fluorophenyl)hexan-2-ol]
inhibition at 1 µM ([4]; read-out: Percent Inhibition of ligand binding, Adrenergic (1 μM) a2A): 88% | inhibition at 1 µM ([2]; compound at 1 μM): 98%

CCC(O)(Cn1c2c(c3cc(C)ccc31)CN(C)CC2)c1ccncc1 (stereo not shown) [Compound 1-24, 1-(2,8-dimethyl-3,4-dihydro-1H-pyrido[4,3-b]indol-5(2H)-yl)-2-(pyridin-4-yl)butan-2-ol]
inhibition at 0.1 µM [5]: 8% | inhibition at 0.1 µM [6]: 10% | inhibition at 0.1 µM [7]: 12% | inhibition at 1 µM [1]: 9% | inhibition at 0.1 µM [2]: 36%

Cc1ccc2c(c1)c1c(n2CCc2ccc(C)nc2)CC(C)N(C)C1 (stereo not shown) [Compound 1-44, 2,3,8-trimethyl-5-(2-(6-methylpyridin-3-yl)ethyl)-2,3,4,5-tetrahydro-1H-pyrido[4,3-b]indole]
inhibition at 0.1 µM [5]: 45% | inhibition at 0.1 µM [6]: 46% | inhibition at 0.1 µM [7]: 74% | inhibition at 1 µM [1]: 8% | inhibition at 0.1 µM [2]: 16% | inhibition at 1 µM [3]: 100%

Cc1ccc2c(c1)c1c(n2CCc2ccc(C(F)(F)F)nc2)CC(C)N(C)C1 (stereo not shown) [Compound 1-45, 2,3,8-trimethyl-5-(2-(6-(trifluoromethyl)pyridin-3-yl)ethyl)-2,3,4,5-tetrahydro-1H-pyrido[4,3-b]indole]
inhibition at 0.1 µM [5]: 50% | inhibition at 0.1 µM [6]: 18% | inhibition at 0.1 µM [7]: 78% | inhibition at 1 µM [1]: 0% | inhibition at 0.1 µM [2]: 51% | inhibition at 1 µM [3]: 96%

Cc1ccc2c(c1)c1c(n2CC(C)c2ccc(C)nc2)CC(C)N(C)C1 (stereo not shown) [Compound 1-47, 2,3,8-trimethyl-5-(2-(6-methylpyridin-3-yl)propyl)-2,3,4,5-tetrahydro-1H-pyrido[4,3-b]indole]
inhibition at 0.1 µM [5]: 70% | inhibition at 0.1 µM [6]: 19% | inhibition at 0.1 µM [7]: 85% | inhibition at 1 µM [1]: 12% | inhibition at 0.1 µM [2]: 46% | inhibition at 1 µM [3]: 91%

Cc1ccc(CCn2c3c(c4cc(Cl)ccc42)CN(C)C(C)C3)cn1 (stereo not shown) [Compound 1-48, 8-chloro-2,3-dimethyl-5-(2-(6-methylpyridin-3-yl)ethyl)-2,3,4,5-tetrahydro-1H-pyrido[4,3-b]indole]
inhibition at 0.1 µM [5]: 40% | inhibition at 0.1 µM [6]: 50% | inhibition at 0.1 µM [7]: 86% | inhibition at 1 µM [1]: 12% | inhibition at 0.1 µM [2]: 30% | inhibition at 1 µM [3]: 101%

Cc1ccc2c(c1)c1c(n2CC2(c3ccncc3)CC2)CCN(C)C1 [Compound 1-50, 2,8-dimethyl-5-((1-(pyridin-4-yl)cyclopropyl)methyl)-2,3,4,5-tetrahydro-1H-pyrido[4,3-b]indole]
inhibition at 0.1 µM [5]: -1% | inhibition at 0.1 µM [6]: 30% | inhibition at 0.1 µM [7]: 95% | inhibition at 1 µM [1]: 47% | inhibition at 0.1 µM [2]: 77% | inhibition at 1 µM [3]: 97%

Cc1ccc2c(c1)c1c(n2CCc2ccc(C(F)(F)F)nc2)C(C)CN(C)C1 (stereo not shown) [Compound 1-51, 2,4,8-trimethyl-5-(2-(6-(trifluoromethyl)pyridin-3-yl)ethyl)-2,3,4,5-tetrahydro-1H-pyrido[4,3-b]indole]
inhibition at 0.1 µM [5]: 92% | inhibition at 0.1 µM [6]: 4% | inhibition at 0.1 µM [7]: 15% | inhibition at 1 µM [1]: 14% | inhibition at 0.1 µM [2]: 77% | inhibition at 1 µM [3]: 65%

CCCCC(O)(Cn1c2c(c3cc(Cl)ccc31)CN(C)CC2)c1ccc(F)cc1 (stereo not shown) [Compound 1-64, 1-(8-chloro-2-methyl-3,4-dihydro-1H-pyrido[4,3-b]indol-5(2H)-yl)-2-(4-fluorophenyl)hexan-2-ol]
Percent Inhibition of ligand binding, Adrenergic (1 μM) a2A [4]: 88% | Percent Inhibition of ligand binding, Serotonin (1 μM) 5-HT2A ([2]; compound at 1 μM): 98%
